Laboratory results: patent US10821117B2, “Estrogen therapy for brain gray matter atrophy and associated disability” (The Regents of the University of California, priority 2014, dated 2020)

Tests used:
Format in all cases: in vivo, human
[1] = system: relapsing remitting multiple sclerosis patients; assay: Expanded Disability Status Scale (EDSS) change and disability progression; conditions: for Proportion of pts with progression at 24 months % (95% CI): EDSS progression sustained at least 6 months, Kaplan-Meier; for EDSS change at 24 months (median): within group comparison vs baseline, negative values indicate improvement
Experimental: Standardized neurologic assessments, including an EDSS assessment, were performed at months 0, 3, 6, 12, 18 and 24, and at the time of a suspected relapse (as an additional unscheduled visit). EDSS assessments were performed by physicians who were trained either by in-person training or online (www.Neurostatus.net). MRI scans were obtained at screening and at months 0, 3, 6, 12 and 24. Subjects were seen or contacted every 3 months for compliance assessments and for dispensing medications.
Secondary efficacy end points included the proportion of subjects with a relapse over all 24 months, a change in PASAT cognitive testing, a sustained improvement in PASAT cognitive testing (as defined by an increase of at least 3 points sustained over at least 6 months), a change in EDSS scores from baseline, disability progression (as defined by an increase in EDSS of at least 1.0 point in subjects with a baseline score of 1.0 or higher, or by an increase of at least a 1.5 points in subjects with a baseline score of 0, each sustained for at least 6 months). Tertiary end points included gray matter atrophy on MRI.
For the time to first relapse analysis, Kaplan Meier curves and log-rank test were used to estimate and compare the relapse free probabilities of the two treatment groups. Cox proportional hazards model was used to compare the time to relapse free probabilities between two groups adjusting for covariates. The fixed effects include treatment groups (Estriol+GA vs Placebo+GA), baseline lesion number, age and baseline EDSS score. The random effect of subject is included in the model to account for within subject correlation.
(§1) Linear mixed effects model was carried out to compare the percent change in whole gray matter and cortical gray matter between treatment groups. For the exploratory endpoints of EDSS, PASAT, and brain volume measures, linear mixed effects model was used to compare treatment groups at 12 and 24 months. Linear mixed effects model was carried out to evaluate the association between PASAT change and percent brain volume change.

[2] = system: relapsing remitting multiple sclerosis patients; assay: Brain MRI enhancing lesions and brain volumes (pairwise Jacobian integration)
Experimental: as §1
• For Number of Enhancing Lesions, the data in this column are E+GA vs. P+GA mean of lesions number ratio (95% CI) and p-value based on mixed effect negative binomial regression model. • For Lesion Activity on Brain MRI, the data in this column are E+GA vs. P+GA odds ratio (95% CI) and p-value based on mixed effect logistic regression model. MRI Methodologies
Dual-echo fast spin echo: TR10000, TE12/95, 50 slices, 1×1×3 mm. Fluid attenuated inversion recovery (FLAIR): TR10380, TE88, T188, T12500, 50 slices, 1×1×3 mm. Minor changes were allowed to accommodate different platforms and field strengths at each site. MRI data in Dicom format were fully anonymized prior to transfer and then uploaded to the central MRI reading center database. Prior to study onset, each site provided a dummy scan utilizing the standardized sequences for review by the central MRI reading center to verify scan quality and fidelity. Quality control was maintained at each site using standard procedures for clinical scanners (daily phantoms, stability testing). Quarterly phantoms were collected from 12 of the 15 sites, most using the standard American College of Radiology (ACR) phatom. One site upgraded from a Siemens 1.5T to a 3.0T in November 2013, resulting in the acquisition of one month 24 scan on the new scanner. One site upgraded from a Phillips Achieva 3.0T to a Pillips Intera 3.0T after the first subject completed month 24. All subsequent studies were performed on the Intera.
MRI brain, whole gray matter, whole white matter and cortical gray matter volumes were determined using a pairwise Jacobian integration (PJI) method. Pre-processing for structural T1-weighted images included 1) N3 non-uniformity correction, 2) histogram-based intensity normalization, 3) linear standard space registration using ICBM 2009c nonlinear symmetric template, 4) patch-based brain extraction, and 5) lesion-inpainting. Inputs to PJI were a pair of baseline and follow-up pre-processed structural T1-weighed images. The PJI consisted of 1) linear skull-constrained symmetric registration, 2) halfway transformation and resampling, 3) nonlinear symmetric registration using ANTS, and 4) voxelwise Jacobian determinant calculation on the warp field. Whole gray matter and whole white matter tissue masks were generated by SPM8 Segment function. Additional nonlocal means denoising was applied. For whole brain tissue masks, the whole gray matter and whole white matter masks were combined. For cortical gray matter mask, a standard cortical mask was nonlinearly transformed and merged with gray matter mask. The standard template was the ICBM (ICBM 2009c nonlinear symmetric version), and the nonlinear registration was performed by ANTS. Finally, the Jacobian determinants were averaged within the masks for percent volume change in cortical gray matter, whole gray matter, whole white matter, and whole brain.

[3] = system: relapsing remitting multiple sclerosis patients; assay: 7/24 Spatial Recall Test, proportion with perfect score
Experimental: (§2) The estriol and placebo subjects were administered the 7/24 Spatial Recall Test periodically throughout the study. A perfect score on the test is 7, and for both treatment groups, the median score was also 7. Therefore, performance was assessed by the proportion of subjects in each group who achieved a perfect score on the test. […] Logistic regression for repeated measurement was used to compare the probability having a perfect score between the two treatment groups, adjusting for age, education level, and baseline recall (Table 7).

[4] = system: relapsing remitting multiple sclerosis patients; assay: Delayed Recall Test, proportion with perfect score
Experimental: as §2, with “Delayed” for “7/24 Spatial”, “9).” for “7).”

[5] = negative value indicates improvement
[6] = negative value indicates worsening
[7] = logistic regression for repeated measurement, adjusted for age, education level, baseline recall

## glatiramer acetate [Placebo + GA]
[1]
  Proportion of pts with progression at 24 months % (95% CI): 15.8 (8.8-27.6) %
  EDSS change at 24 months (median): 0
[1]; listed as Placebo plus GA
  Proportion of pts with progression at 24 months % (95% CI): 15.8%
  EDSS change at 24 months (median): stable and unchanged
[1]; FIG. 6
  EDSS scores over 24 months, slope: −0.01
[1]; listed as Copaxone® plus placebo
  EDSS change at 24 months (median): no change
[2]; Month 12
  Lesion activity on Brain MRI - proportion of patients with enhancing lesion, Month 12 % (95% CI): 21.0 (10.8-31.1) %
[2]; Month 24
  Lesion activity on Brain MRI - proportion of patients with enhancing lesion, Month 24 % (95% CI): 14.6 (5.2-23.9) %
[2]; month 12, FIG. 7C, mean percent change from baseline
  cortical gray matter volume change from baseline: −0.74%
[2]; month 12, FIG. 7D, mean percent change from baseline
  whole gray matter volume change from baseline: −0.68%
[2]; [5]
  Enhancing Lesion Volume, Change from baseline at Mon 12, Mean ± SD: −18.7 ± 184
  Enhancing Lesion Volume, Change from baseline at Mon 12, Median: 0
  Enhancing Lesion Volume, Change from baseline at Mon 24, Mean ± SD: −34.0 ± 120
  Enhancing Lesion Volume, Change from baseline at Mon 24, Median: 0
  Number of Enhancing Lesions, Change from baseline to Mon 12, Mean ± SD: −0.5 ± 1.8
  Number of Enhancing Lesions, Change from baseline to Mon 12, Median: 0
  Number of Enhancing Lesions, Change from baseline to Mon 24, Mean ± SD: −0.5 ± 2.4
  Number of Enhancing Lesions, Change from baseline to Mon 24, Median: 0
[2]; [6]
  Cortical gray matter volume % change from baseline at Month 12, Mean ± SD: −0.72 ± 0.80%
  Cortical gray matter volume % change from baseline at Month 12, Median: −0.67%
  Cortical gray matter volume % change from baseline at Month 24, Mean ± SD: −1.04 ± 0.87%
  Cortical gray matter volume % change from baseline at Month 24, Median: −0.93%
  White matter volume % change from baseline at Month 12, Mean ± SD: −0.20 ± 0.83%
  White matter volume % change from baseline at Month 12, Median: −0.11%
  White matter volume % change from baseline at Month 24, Mean ± SD: −0.54 ± 1.12%
  White matter volume % change from baseline at Month 24, Median: −0.56%
  Whole Brain volume % change from baseline at Month 12, Mean ± SD: −0.50 ± 0.64%
  Whole Brain volume % change from baseline at Month 12, Median: −0.43%
  Whole Brain volume % change from baseline at Month 24, Mean ± SD: −0.78 ± 0.73%
  Whole Brain volume % change from baseline at Month 24, Median: −0.91%
  Whole gray matter volume % change from baseline at Month 12, Mean ± SD: −0.69 ± 0.71%
  Whole gray matter volume % change from baseline at Month 12, Median: −0.68%
  Whole gray matter volume % change from baseline at Month 24, Mean ± SD: −0.95 ± 0.76%
  Whole gray matter volume % change from baseline at Month 24, Median: −0.93%
[3]; Month 3
  Percentage of subjects achieving a perfect score on the 7/24 Spatial Recall Test: 60.8 (45/74) %
[3]; Month 6
  Percentage of subjects achieving a perfect score on the 7/24 Spatial Recall Test: 73.2 (52/71) %
[3]; Month 12
  Percentage of subjects achieving a perfect score on the 7/24 Spatial Recall Test: 71.4 (45/63) %
[3]; Month 18
  Percentage of subjects achieving a perfect score on the 7/24 Spatial Recall Test: 63.6 (35/55) %
[3]; Month 24
  Percentage of subjects achieving a perfect score on the 7/24 Spatial Recall Test: 75.0 (42/56) %
[3]; [7]
  7/24 Spatial Recall Test, Estimated perfect score rate (95% CI): 69.8 (63.4, 75.5) %
[4]; Month 3
  Percentage of subjects achieving a perfect score on the Delayed Recall Test: 65.9 (48/74) %
[4]; Month 6
  Percentage of subjects achieving a perfect score on the Delayed Recall Test: 76.1 (54/71) %
[4]; Month 12
  Percentage of subjects achieving a perfect score on the Delayed Recall Test: 69.8 (44/63) %
[4]; Month 18
  Percentage of subjects achieving a perfect score on the Delayed Recall Test: 65.4 (36/55) %
[4]; Month 24
  Percentage of subjects achieving a perfect score on the Delayed Recall Test: 75.0 (42/56) %
[4]; [7]
  Delayed Recall Test, Estimated perfect score rate (95% CI): 73.2 (65.7, 79.5) %
